{"source": "patent US8895509B2", "about": "“MIR-200 family induces mesenchymal-to-epithelial transition (MET) in ovarian cancer cells” (Georgia Tech Research Corporation, priority 2010, dated 2014)", "system": "HEY cells", "test": "microarray profiling (Affymetrix HG-U133 Plus 2.0) of miR-429 transfected HEY cells", "format": "cell-based, human", "details": "for Fold-change: miR-429 transfected HEY cells", "procedure": "6×10^4 cells per well were seeded in 24-well plates. After 24 h, cells were transfected with 30 nM of miR-429 and miR-320 miRNA oligonucleotides (Ambion, Austin, Tex.) using Lipofectamine 2000 reagent (Invitrogen, Carlsbad, Calif.). The Ambion Pre-miRNA Precursor Negative Control was used as a control. Three days after transfection, cells were split and transfected again. This process was repeated every 3 days until 21 days when cells were assayed for response.\nMicroarray analyses were performed using the Affymetrix system (HG-U133 Plus 2.0; Santa Clara, Calif.) as previously described [Bowen et al., BMC Med Genomics 2009, 2:71]. Briefly, the expression data were analyzed using MAS 5.0 Statistical Algorithm encoded in the Affymetrix Expression Console application. The expression values were normalized across samples by Z-score calculation using Spotfire Decision Site software. […] Gene enrichment analyses were carried out using GeneGO (http://www.genego.com/) gene ontology software.", "data": [{"substance": "miR-429: miR-200 family member; mature miRNA UAAUACUGUCUGGUAAAACCGU (SEQ ID NO: 6); miRNA oligonucleotide (Ambion) transfected at 30 nM (listed as RNA, chemistry not given here; listed as Homo sapiens) [miR-200 family member; miRNA oligonucleotide (Ambion) transfected at 30 nM]", "values": [{"measurement": "Fold change (miR-429 transfected HEY cells relative to negative controls)", "setting": "gene AARS", "value": "−2.57"}, {"measurement": "Fold change (miR-429 transfected HEY cells relative to negative controls)", "setting": "gene ABCF2", "value": "−3.48"}, {"measurement": "Fold change (miR-429 transfected HEY cells relative to negative controls)", "setting": "gene ALDH1L2", "value": "−11.31"}, {"measurement": "Fold change (miR-429 transfected HEY cells relative to negative controls)", "setting": "gene ANK2", "value": "−3.58"}, {"measurement": "Fold change (miR-429 transfected HEY cells relative to negative controls)", "setting": "gene ANKRD23", "value": "−7.62"}, {"measurement": "Fold change (miR-429 transfected HEY cells relative to negative controls)", "setting": "gene ASAM", "value": "−3.48"}, {"measurement": "Fold change (miR-429 transfected HEY cells relative to negative controls)", "setting": "gene ASNS", "value": "−6.82"}, {"measurement": "Fold-change", "setting": "gene B3GALNT2", "value": "−2.16"}, {"measurement": "Fold change (miR-429 transfected HEY cells relative to negative controls)", "setting": "gene BCHE", "value": "−2.93"}, {"measurement": "Fold change (miR-429 transfected HEY cells relative to negative controls)", "setting": "gene C6orf105", "value": "−2.48"}, {"measurement": "Fold change (miR-429 transfected HEY cells relative to negative controls)", "setting": "gene C11orf57", "value": "−2.41"}, {"measurement": "Fold change (miR-429 transfected HEY cells relative to negative controls)", "setting": "gene C12orf39", "value": "−10.06"}, {"measurement": "Fold change (miR-429 transfected HEY cells relative to negative controls)", "setting": "gene C12orf55", "value": "−6.06"}, {"measurement": "Fold change (miR-429 transfected HEY cells relative to negative controls)", "setting": "gene C17orf51", "value": "−3.46"}, {"measurement": "change in expression by microarray", "setting": "gene CAV2 (epithelial marker)", "value": "up-regulated"}, {"measurement": "Fold change (miR-429 transfected HEY cells relative to negative controls)", "setting": "gene CBS", "value": "−2.68"}, {"measurement": "Fold change (miR-429 transfected HEY cells relative to negative controls)", "setting": "gene CCDC148", "value": "−3.39"}, {"measurement": "Fold change (miR-429 transfected HEY cells relative to negative controls)", "setting": "gene CCDC152", "value": "−3.10"}, {"measurement": "Fold change (miR-429 transfected HEY cells relative to negative controls)", "setting": "gene CCND2", "value": "−4.03"}, {"measurement": "Fold change (miR-429 transfected HEY cells relative to negative controls)", "setting": "gene CCNJ", "value": "−2.45"}, {"measurement": "Fold change (miR-429 transfected HEY cells relative to negative controls)", "setting": "gene CDC42EP1", "value": "−3.48"}, {"measurement": "Fold change (miR-429 transfected HEY cells relative to negative controls)", "setting": "gene CDKAL1", "value": "−2.64"}, {"measurement": "Fold change (miR-429 transfected HEY cells relative to negative controls)", "setting": "gene CDO1", "value": "−13.45"}, {"measurement": "Fold-change", "setting": "gene CFL2", "value": "−1.75"}, {"measurement": "Fold change (miR-429 transfected HEY cells relative to negative controls)", "setting": "gene CHST10", "value": "−4.03"}, {"measurement": "Fold change (miR-429 transfected HEY cells relative to negative controls)", "setting": "gene CLGN", "value": "−2.79"}, {"measurement": "Fold change (miR-429 transfected HEY cells relative to negative controls)", "setting": "gene COLEC12", "value": "−16.11"}, {"measurement": "Fold change (miR-429 transfected HEY cells relative to negative controls)", "setting": "gene CXCL3", "value": "−2.57"}, {"measurement": "Fold change (miR-429 transfected HEY cells relative to negative controls)", "setting": "gene CYCS", "value": "−2.73"}, {"measurement": "Fold change (miR-429 transfected HEY cells relative to negative controls)", "setting": "gene DDR2", "value": "−2.68"}, {"measurement": "Fold-change", "setting": "gene DNAJB4", "value": "−1.53"}, {"measurement": "Fold-change", "setting": "gene DPY19L1", "value": "−1.64"}, {"measurement": "change in expression by microarray", "setting": "gene DSP (epithelial marker)", "value": "up-regulated"}, {"measurement": "Fold-change", "setting": "gene EIF2B5", "value": "−2.10"}, {"measurement": "change in expression by microarray", "setting": "gene EPCAM (epithelial marker)", "value": "up-regulated"}, {"measurement": "Fold change (miR-429 transfected HEY cells relative to negative controls)", "setting": "gene EPHB1", "value": "−4.06"}, {"measurement": "Fold change (miR-429 transfected HEY cells relative to negative controls)", "setting": "gene ERN1", "value": "−3.51"}, {"measurement": "Fold change (miR-429 transfected HEY cells relative to negative controls)", "setting": "gene EXOSC6", "value": "−2.87"}, {"measurement": "Fold change (miR-429 transfected HEY cells relative to negative controls)", "setting": "gene F2RL2", "value": "−5.35"}, {"measurement": "Fold change (miR-429 transfected HEY cells relative to negative controls)", "setting": "gene FLJ34077", "value": "−2.73"}, {"measurement": "Fold change (miR-429 transfected HEY cells relative to negative controls)", "setting": "gene FOXP3", "value": "−3.76"}, {"measurement": "Fold change (miR-429 transfected HEY cells relative to negative controls)", "setting": "gene GALNT12", "value": "−2.39"}, {"measurement": "Fold change (miR-429 transfected HEY cells relative to negative controls)", "setting": "gene GART", "value": "−3.94"}, {"measurement": "Fold change (miR-429 transfected HEY cells relative to negative controls)", "setting": "gene GAS7", "value": "−12.55"}, {"measurement": "Fold change (miR-429 transfected HEY cells relative to negative controls)", "setting": "gene GLIPR1", "value": "−2.73"}, {"measurement": "Fold change (miR-429 transfected HEY cells relative to negative controls)", "setting": "gene GLT8D2", "value": "−4.76"}, {"measurement": "Fold change (miR-429 transfected HEY cells relative to negative controls)", "setting": "gene GPATCH4", "value": "−2.87"}, {"measurement": "Fold-change", "setting": "gene GREM1", "value": "−2.10"}, {"measurement": "Fold change (miR-429 transfected HEY cells relative to negative controls)", "setting": "gene GRK4", "value": "−3.14"}, {"measurement": "Fold change (miR-429 transfected HEY cells relative to negative controls)", "setting": "gene HIF3A", "value": "−3.12"}, {"measurement": "Fold change (miR-429 transfected HEY cells relative to negative controls)", "setting": "gene HORMAD1", "value": "−10.48"}, {"measurement": "Fold change (miR-429 transfected HEY cells relative to negative controls)", "setting": "gene HS6ST3", "value": "−2.64"}, {"measurement": "Fold change (miR-429 transfected HEY cells relative to negative controls)", "setting": "gene HSPA9", "value": "−2.48"}, {"measurement": "Fold change (miR-429 transfected HEY cells relative to negative controls)", "setting": "gene INTS4", "value": "−2.81"}, {"measurement": "Fold change (miR-429 transfected HEY cells relative to negative controls)", "setting": "gene JDP2", "value": "−3.46"}, {"measurement": "Fold change (miR-429 transfected HEY cells relative to negative controls)", "setting": "gene KIAA1853", "value": "−3.32"}, {"measurement": "Fold change (miR-429 transfected HEY cells relative to negative controls)", "setting": "gene KLHL13", "value": "−2.57"}, {"measurement": "Fold-change", "setting": "gene LDLRAD3", "value": "−1.74"}, {"measurement": "Fold change (miR-429 transfected HEY cells relative to negative controls)", "setting": "gene LMO4", "value": "−3.14"}, {"measurement": "Fold change (miR-429 transfected HEY cells relative to negative controls)", "setting": "gene LOC148189", "value": "−2.69"}]}]}
